Data as given in US5776970A, “Tryptophan derivatives as protein tyrosine kinase blockers and their use in the treatment of neoplastic diseases” (Yeda Research and Development Co. Ltd., priority 1994, dated 1998).
In brackets after ≈: the same amount, converted by molar mass.

Tests used:
[1] = system: insulin-stimulated lipogenesis in rat adipocytes; assay: insulin-stimulated lipogenesis in rat adipocytes ([U-14C]glucose incorporation); assay type: cell-based; conditions: Adipocyte; intact rat adipocytes; insulin 100 ng/ml; 20 min pre-incubation, 60 min at 37° C.; read-out: IC50, insulin-dependent lipogenesis
Method: The fat pads of three rats were cut into small pieces with scissors and digested in 3 ml of Krebs-Ringer-Bicarbonate (KRB)-buffer containing 0.7% bovine serum albumin (BSA) (pH 7.4) with collagenase (1 mg/ml). […] Five ml of buffer was then added, and the cells were squeezed through a mesh screen. The cells were then allowed to stand for several minutes (in a 15 ml plastic test tube at room temperature, floating) and the buffer underneath was removed. This procedure (suspension, floating and removal of buffer underneath) was repeated three times. […] Fat cell suspensions were pre-incubated for 20 min at 37° C. with increasing concentrations of the inhibitors. Results are expressed in FIG. 2 as the percent of maximal stimulation at the indicated concentrations of inhibitors.

[2] = system: vanadate-stimulated lipogenesis in rat adipocytes; assay: vanadate-stimulated lipogenesis in rat adipocytes; assay type: cell-based; conditions: Adipocyte, intact rat adipocytes, read-out: IC50, insulin-like effects of vanadate ions (lipogenesis)
[3] = system: isoproterenol-mediated lipolysis; assay: isoproterenol-mediated lipolysis in rat adipocytes (glycerol release); assay type: cell-based
Method: In general there are two classes of protein kinases (PKs) in mammalian tissues: (a) PKs which phosphorylate tyrosine moieties in proteins (to phosphotyrosine), and (b) PKs which phosphorylate serine and threonine moieties (to phosphoserine and phosphotreonine). […] An example for such a metabolic effect is lipolysis which depends on protein kinase A. Rat adipocytes (prepared by the method of Rodbell, 1964) were incubated with isoproterenol alone (1 μM) or isoproterenol with CBZ-DNPS-TRP-TAU (200 μM) for one hour at 37° C. The amount of glycerol released from the cells was then determined by spectroscopic procedure (Shechter, 1982).

[4] = system: murine T-cell lymphoma (LB3); assay: insulin-dependent proliferation of murine T-cell lymphoma (LB3), thymidine incorporation; assay type: cell-based
Method: (§1) LB cells were removed from the peritoneal cavity of BALB/c mice, washed and resuspended in RPMI-1640. Then a continuous line designated LB3 was established in "LB medium" (50% RPMI-1640 plus 50% DCCM-1 in 10% fetal calf serum (FCS)). The LB3 cells were incubated (37° C., 5% CO2) in microplate wells (Nunc, Roskilde, Denmark) with 0.2 ml RPMI-1640 alone and in the same medium containing insulin, fetal calf serum (FCS) or both, and different concentrations of the compound CBZ-DNPS-TRP-TAU as indicated in FIG. 3. Proliferation capacity was determined by thymidine incorporation (^3 H-TdR, 1 μCi/well, specific activity 5 Ci/mM), added to the cells 24 hours later. In a typical experiment, cpm of ^3 H-thymidine incorporated into 30,000 cells was 12-14 fold higher in the presence of insulin or other mitogens than in their absence.

LB3 cells = assay: LB3 cell proliferation in response to various mitogens (IL-2, growth hormone, PMA); assay type: cell-based, murine
Method: as §1
Experimental conditions were as described in Example 6 except that lower concentrations of mitogens were applied here (those triggering 50% of maximal proliferation): insulin, interleukin-2 (IL-2), growth hormone and PMA. PMA is an activator of protein kinase C. Protein kinase C in this cell type triggers proliferation by a pathway which is only partially dependent on endogenous tyrosine phosphorylation.

rat adipocytes = assay: permeability into cell interiors (intact cell system, lipogenesis); assay type: cell-based; conditions: graded in words
Method: Rat adipocytes were prepared essentially by the method of Rodbell, 1964. The fat pads of three rats were cut into small pieces with scissors and digested in 3 ml of Krebs-Ringer-Bicarbonate (KRB)-buffer containing 0.7% bovine serum albumin (BSA) (pH 7.4) with collagenase (1 mg/ml). The digestion was performed in a 25 ml flexible plastic bottle under an atmosphere of carbogen (95% O2, 5% CO2) for 40 min at 37° C. with vigorous shaking. Five ml of buffer was then added, and the cells were squeezed through a mesh screen. The cells were then allowed to stand for several minutes (in a 15 ml plastic test tube at room temperature, floating) and the buffer underneath was removed. This procedure (suspension, floating and removal of buffer underneath) was repeated three times. For [^14 C-U]glucose incorporation (lipogenesis), the fat cell suspensions (3×10^5 cells/ml) were divided into plastic vials (0.5 ml per vial) and incubated for 60 min at 37° C. under an atmosphere of 95% O2, 5% CO2, with 0.2 mM [U-^14 C]glucose, in either the presence or absence of insulin (100 ng/ml) and the indicated concentrations in FIG. 2 of CBZ-DNPS-TRP-TAU. The reaction was terminated by adding toluene-based scintillation fluid (1.0 ml per vial) and the extracted lipids were counted (Shechter and Karlish, 1980). Fat cell suspensions were pre-incubated for 20 min at 37° C. with increasing concentrations of the inhibitors. Results are expressed in FIG. 2 as the percent of maximal stimulation at the indicated concentrations of inhibitors. In all experiments insulin-stimulated lipogenesis was 4- to 5-fold higher than basal; basal ~2000 cpm per 3×10^5 cells/h; Vinsulin 8000-10,000 cpm per 3×10^5 cells/h.
(§2) Various derivatives according to the invention in which R^1 is benzyloxycarbonyl (CBZ) or t-butoxycarbonyl (t-Boc), R^2 is --SO3 H or --PO3 H, n is 1,2 or 3, and R^3 is H, 2-nitrophenylthio (NPS) or 2,4-dinitrophenylthio (DNPS) were prepared and examined in cell-free and intact cell systems. The cell-free assay is PolyGlu4 Tyr phosphorylation by partially purified insulin receptor as described in Example 3. The assay in intact cells (namely, lipogenesis) was carried out as described in Example 4.

[5] = molecular target: insulin receptor tyrosine kinase (InsRTK) (Rattus norvegicus, UniProt P15127); assay: PolyGlu4 Tyr phosphorylation by partially purified (wheat-germ-agglutinin purified) rat liver insulin receptor, cell-free; assay type: biochemical; parameters: wheat-germ-agglutinin purified rat liver insulin receptor; from tissue; host or cells: rat liver (wheat-germ-agglutinin purified)
Method: An assay of PolyGlu4 Tyr phosphorylation by partially purified insulin receptor was run for 30 min at 22° C. in 60 μl of 50 mM Hepes (pH 7.4)-0.1% Triton X-100 containing wheat-germ-agglutinin purified rat liver insulin receptor (1 μg protein), MgCl2 25 mM; MnCl2, 1 mM, ATP 17 μM, insulin 0.1 μM, PolyGlu4 Tyr, 0.17 mg/ml and the indicated concentrations in FIG. 1 of CBZ-DNPS-TRP-TAU. Phosphotyrosine content in PolyGlu4 Tyr was determined by a radioimmunoassay procedure (Shisheva et al., 1991). […] The inhibitory potency of other derivatives of formula I on InsRTK-catalyzed PolyGlu4 Tyr phosphorylation in cell-free experiments was determined. […] For comparison, the IC50 values for AC-TRP-TAU and L-tryptophan are 5 mM and >30 mM, respectively.
as §2

Sequence of insulin receptor tyrosine kinase (InsRTK) (P15127 764-1383 limits assumed): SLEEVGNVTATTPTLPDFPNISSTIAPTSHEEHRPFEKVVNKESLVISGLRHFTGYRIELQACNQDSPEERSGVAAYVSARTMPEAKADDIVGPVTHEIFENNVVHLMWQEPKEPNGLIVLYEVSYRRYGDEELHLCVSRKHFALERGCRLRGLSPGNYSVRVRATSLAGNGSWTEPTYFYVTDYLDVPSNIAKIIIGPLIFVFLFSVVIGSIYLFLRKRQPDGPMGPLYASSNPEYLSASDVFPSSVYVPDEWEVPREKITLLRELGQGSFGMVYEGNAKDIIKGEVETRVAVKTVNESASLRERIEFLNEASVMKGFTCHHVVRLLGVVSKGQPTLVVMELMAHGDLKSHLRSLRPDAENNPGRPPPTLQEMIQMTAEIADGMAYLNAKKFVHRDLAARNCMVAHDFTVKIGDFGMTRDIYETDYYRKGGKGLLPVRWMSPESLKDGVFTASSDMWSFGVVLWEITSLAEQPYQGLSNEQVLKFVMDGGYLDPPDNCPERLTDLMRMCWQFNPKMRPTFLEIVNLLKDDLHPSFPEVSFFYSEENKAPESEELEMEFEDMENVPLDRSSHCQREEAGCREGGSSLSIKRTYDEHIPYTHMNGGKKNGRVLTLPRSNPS
Sequence of insulin receptor tyrosine kinase (InsRTK) (P15127 27-759 partner limits assumed): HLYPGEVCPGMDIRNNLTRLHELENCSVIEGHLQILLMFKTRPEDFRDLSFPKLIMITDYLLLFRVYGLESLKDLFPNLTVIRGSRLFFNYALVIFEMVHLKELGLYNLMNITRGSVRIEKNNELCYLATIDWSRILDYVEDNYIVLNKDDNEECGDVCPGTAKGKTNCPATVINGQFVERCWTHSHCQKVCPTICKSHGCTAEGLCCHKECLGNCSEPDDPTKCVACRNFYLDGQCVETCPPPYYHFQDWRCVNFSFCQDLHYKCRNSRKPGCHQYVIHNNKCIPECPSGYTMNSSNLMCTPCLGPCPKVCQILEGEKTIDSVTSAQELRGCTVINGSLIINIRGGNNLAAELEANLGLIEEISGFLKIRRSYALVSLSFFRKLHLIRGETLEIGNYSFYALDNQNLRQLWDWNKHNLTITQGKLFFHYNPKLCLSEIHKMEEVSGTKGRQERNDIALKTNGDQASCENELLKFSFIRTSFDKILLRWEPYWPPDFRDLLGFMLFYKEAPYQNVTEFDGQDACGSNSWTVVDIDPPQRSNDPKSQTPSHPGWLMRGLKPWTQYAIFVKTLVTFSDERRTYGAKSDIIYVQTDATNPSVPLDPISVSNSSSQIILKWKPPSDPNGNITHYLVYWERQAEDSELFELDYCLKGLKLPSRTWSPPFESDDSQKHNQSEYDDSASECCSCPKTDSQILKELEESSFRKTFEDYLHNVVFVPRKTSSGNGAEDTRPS

Structure (SMILES): O=C(N[C@@H](Cc1c(Sc2ccc([N+](=O)[O-])cc2[N+](=O)[O-])[nH]c2ccccc12)C(=O)NCCS(=O)(=O)O)OCc1ccccc1 [CBZ-DNPS-TRP-TAU]
- IC50 [1]: 170 µM
- IC50 [2]: 45 µM
- effect in inhibiting isoproterenol-mediated lipolysis ([3]; 200 μM, isoproterenol 1 μM, one hour at 37° C.): negligible effect
- Amount of glycerol released ([3]; CBZ-DNPS-TRP-TAU 200 μM plus isoproterenol 1 μM): 154 nmol/3 × 10^5 cells/3 h
- activity at 200 µM ([3]; Rattus norvegicus, Adipocyte, CBZ-DNPS-TRP-TAU 200 μM plus isoproterenol 1 μM, read-out: Percent lipolysis): 93%
- concentration range lower than that required to inhibit normal metabolic biological effects of insulin ([4]; LB3 proliferation vs lipogenesis in rat adipocytes (FIG. 2)): ~200 times
- IC50 ([4]; Mus musculus, T-cell, LB3, insulin-dependent, thymidine added 24 hours later): 0.95 µM
- inhibition of IL-2-dependent proliferation of the T-cell lymphoma (LB3 cells; IL-2 at 50% of maximal proliferation): blocks
- inhibition of protein kinase C-dependent proliferation (LB3 cells; PMA at 50% of maximal proliferation): at significantly higher concentrations
- inhibition of growth hormone-dependent proliferation of the T-cell lymphoma (LB3 cells; growth hormone at 50% of maximal proliferation): blocks
- Permeability into cell interiors (rat adipocytes): excellent
- solubility (solubility; dmf, organic solvent or mixture): 20 mM (≈ 12.9 mg/mL)
- solubility (solubility; dmso, organic solvent or mixture): 20 mM (≈ 12.9 mg/mL)
- solubility (solubility; water): ≤ 2 mM
- IC50 [5]: 130 µM
